Tests used:
[1] = test system: YAPC (Pancreatic Carcinoma); experiment: Bliss excess, mean over the matrix (fraction); higher = more synergy
Summary of the method: (§1)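 After 24 hours at 37°C and 5% CO2 in 1536-well plates, cells in DMEM/F12 or RPMI plus 10% FBS received two-drug dose matrices for 72 hours. Viability came from CellTiter-Glo 2.0 luminescence and was scaled as inhibition, anchored at 0 by vehicle wells and at 1 by blank wells. Combination Emax is taken as the second-highest inhibition in the matrix, and Bliss excess as the observed combination effect less EA + EB − EA·EB, with EA and EB the single-agent effects.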

MPP-89 (Mesothelioma) = experiment: as above
Summary of the method: as §1

[2] = test system: CAL-33 (Oral Cavity Carcinoma); experiment: as above
Summary of the method: as §1

[3] = test system: SNU-449 (Hepatocellular Carcinoma); experiment: as above
Summary of the method: as §1

[4] = test system: Detroit562 (Head and Neck Carcinoma); experiment: as above
Summary of the method: as §1

[5] = test system: NCI-H524 (Small Cell Lung Carcinoma); experiment: as above
Summary of the method: as §1

NCI-H2052 (Mesothelioma) = experiment: as above
Summary of the method: as §1

[6] = test system: SNU-16 (Gastric Carcinoma); experiment: as above
Summary of the method: as §1

[7] = test system: BFTC-909 (Kidney Carcinoma); experiment: as above
Summary of the method: as §1

[8] = test system: SW1710 (Bladder Carcinoma); experiment: as above
Summary of the method: as §1

[9] = test system: NCI-H1568 (Lung Adenocarcinoma); experiment: as above
Summary of the method: as §1

[10] = test system: SW1573 (Lung Adenocarcinoma); experiment: as above
Summary of the method: as §1

A673 (Ewing's Sarcoma) [11] = experiment: as above
Summary of the method: as §1

GAMG (Glioblastoma) = experiment: as above
Summary of the method: as §1

[12] = test system: NCI-H209 (Small Cell Lung Carcinoma); experiment: as above
Summary of the method: as §1

[13] = test system: SNU-449 (Hepatocellular Carcinoma); experiment: combination Emax (second highest fraction inhibited in the dose matrix, 72 h); higher = more inhibition; extreme values may be limits of the assay
Summary of the method: as §1

[14] = test system: BFTC-909 (Kidney Carcinoma); experiment: as above
Summary of the method: as §1

[15] = test system: SW1710 (Bladder Carcinoma); experiment: as above
Summary of the method: as §1

A673 (Ewing's Sarcoma) [16] = experiment: as above
Summary of the method: as §1

KS-1 (Glioblastoma) = experiment: as above
Summary of the method: as §1
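Throughout, for Bliss excess, mean over the matrix: after 72 h of two-drug dosing.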

| Structure (SMILES) | Bliss excess [1] | Bliss excess (MPP-89 (Mesothelioma)) | Bliss excess [2] | Bliss excess [3] | Bliss excess [4] | Bliss excess [5] | Bliss excess (NCI-H2052 (Mesothelioma)) | Bliss excess [6] | Bliss excess [7] | Bliss excess [8] | Bliss excess [9] | Bliss excess [10] | Bliss excess (A673 (Ewing's Sarcoma) [11]) | Bliss excess (GAMG (Glioblastoma)) | Bliss excess [12] | combination Emax [13] | combination Emax [14] | combination Emax [15] | combination Emax (A673 (Ewing's Sarcoma) [16]) | combination Emax (KS-1 (Glioblastoma)) |
| --- | --- | --- | --- | --- | --- | --- | --- | --- | --- | --- | --- | --- | --- | --- | --- | --- | --- | --- | --- | --- |
| CCc1c2c(nc3ccc(O)cc13)-c1cc3c(c(=O)n1C2)COC(=O)[C@]3(O)CC [SN-38] + CN(C)CCCOc1ccc(-c2ccc3ncc4c(c3c2)n(C2CCOCC2)c(=O)n4C)cn1 [AZD0156] (first compound max 0.3 µM, 7x7, partner max 1 µM) | -0.0553 | 0.0342 | 0.0579 | -0.0353 | 0.118 | 0.0993 | -0.0409 | 0.107 | 0.0225 | 0.0111 | -0.0078 | 0.0139 | 0.0777 | 0.0527 | -0.0073 | 0.196 | 0.899 | 0.312 | 0.996 | 0.464 |
| Cn1cnc2c(F)c(Nc3ccc(Br)cc3Cl)c(C(=O)NOCCO)cc21 [Selumetinib] + C=CCn1c(=O)c2cnc(Nc3ccc(N4CCN(C)CC4)cc3)nc2n1-c1cccc(C(C)(C)O)n1 [AZD1775] (first compound max 10 µM, partner max 1 µM) | 0.016 | -0.0131 | -0.0194 | -0.0413 | 0.0123 | -0.0452 | -0.0747 | 0.0433 | -0.0047 | -0.0409 | -0.0331 | -0.0582 | -0.0806 | 0.0063 | -0.0211 | 0.129 | 0.646 | 0.264 | 0.203 | 0.277 |
| Cn1cnc2c(F)c(Nc3ccc(Br)cc3Cl)c(C(=O)NOCCO)cc21 [Selumetinib] + CC(C)n1c(=O)n(C)c2cnc3cc(F)c(-c4ccc(OCCCN5CCCCC5)nc4)cc3c21 [AZD1390] (first compound max 10 µM, 7x7, partner max 0.3 µM) | -0.033 | -0.069 | 0.0649 | -0.0464 | 0.003 | -0.0286 | -0.0242 | -0.0185 | -0.024 | -0.059 | -0.0508 | -0.0796 | -0.0481 | -0.0242 | -0.037 | 0.16 | 0.184 | 0.196 | 0.185 | 0.197 |
| Cn1cnc2c(F)c(Nc3ccc(Br)cc3Cl)c(C(=O)NOCCO)cc21 [Selumetinib] + CCN(CCO)CCCOc1ccc2c(Nc3cc(CC(=O)Nc4cccc(F)c4)[nH]n3)ncnc2c1 [AZD2811] (first compound max 10 µM, 7x7, partner max 1 µM) | -0.0654 | -0.0325 | -0.0215 | -0.0582 | 0.0685 | -0.0101 | -0.0388 | -0.0501 | -0.0093 | -0.0548 | -0.0612 | -0.0605 | -0.0233 | -0.0213 | 0.0805 | 0.221 | 0.314 | 0.214 | 0.658 | 0.298 |
| Cn1cnc2c(F)c(Nc3ccc(Br)cc3Cl)c(C(=O)NOCCO)cc21 [Selumetinib] + C[C@@H]1COCCN1C2=NC(=NC(=C2)C3(CC3)[S@](=N)(=O)C)C4=C5C=CNC5=NC=C4 [AZD6738] (first compound max 10 µM, 7x7, partner max 10 µM) | -0.0019 | -0.0424 | 0.0115 | -0.0403 | -0.0438 | -0.0293 | 0.0119 | 0.0038 | -0.025 | -0.0481 | -0.0261 | -0.0587 | -0.0537 | -0.0398 | -0.0403 | 0.111 | 0.797 | 0.26 | 0.648 | 0.334 |
| CC(=O)Nc1cccc(-n2c(=O)n(C3CC3)c(=O)c3c(Nc4ccc(I)cc4F)n(C)c(=O)c(C)c32)c1 [Trametinib] + Cc1nc(-c2cn3c(n2)-c2ccc(-c4cnn(C(C)(C)C(N)=O)c4)cc2OCC3)n(C(C)C)n1 [Taselisib] (first compound max 1 µM, 7x7, partner max 10 µM) | 0.246 | 0.103 | 0.104 | -0.0432 | 0.108 | -0.112 | -0.0231 | 0.257 | 0.182 | 0.016 | 0.131 | 0.0334 | 0.229 | 0.0415 | -0.0014 | 0.559 | 0.781 | 0.532 | 0.722 | 0.832 |

Source: the supplement of paper PMC11061612
